Reference: patent publication US9695155B2, “Herbicidal substituted pyrimidinyloxy benzene compounds” (E. I. DU PONT DE NEMOURS AND COMPANY, priority 2013, dated 2017)

Columns and labels:
sedge, umbrella = assay: Test C flooded paddy test; assay type: in vivo, Cyperus difformis; conditions: Flood, scale 0 to 100 (0 no effect, 100 complete control), 13 to 15 days
Outline: (§1)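 In-water treatment: compound dosed into 3 cm flood over soil, water level unchanged throughout. Controls run alongside; visual assessment at day 13–15.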

ducksalad = assay: Test C flooded paddy test; assay type: in vivo, Heteranthera limosa; conditions: Flood, scale 0 to 100 (0 no effect, 100 complete control), 13 to 15 days
Outline: as §1

corn [1] = assay: Test E preemergence; assay type: in vivo, Zea mays; conditions: for Corn plant response rating: scale 0 to 100 (0 no effect, 100 complete control); for Plant response rating, Corn: scale 0 to 100, 0 no effect, 100 complete control
Outline: (§2)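 Test chemicals formulated in a non-phytotoxic solvent mixture containing a surfactant were applied preemergence to seeds in silt loam soil or postemergence to plants at the 1- to 4-leaf stage in potting mix. After 14 to 21 days in a greenhouse, injury was visually rated against controls on a 0-100 scale (0 = no effect, 100 = complete control).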

soybean = assay: Test E preemergence; assay type: in vivo, Glycine max; conditions: for Soybean plant response rating: scale 0 to 100 (0 no effect, 100 complete control); for Plant response rating, Soybean: scale 0 to 100, 0 no effect, 100 complete control
Outline: as §2

velvetleaf = assay: Test E preemergence; assay type: in vivo, Abutilon theophrasti; conditions: for Velvetleaf plant response rating: scale 0 to 100 (0 no effect, 100 complete control); for Plant response rating, Velvetleaf: scale 0 to 100, 0 no effect, 100 complete control
Outline: as §2

palmer pigweed [2] = assay: Test E preemergence; assay type: in vivo, Amaranthus palmeri; conditions: for Pigweed, Palmer plant response rating: scale 0 to 100 (0 no effect, 100 complete control); for Plant response rating, Pigweed, Palmer: scale 0 to 100, 0 no effect, 100 complete control
Outline: as §2

surinam grass = assay: Test E preemergence; assay type: in vivo, Brachiaria decumbens; conditions: for Surinam Grass plant response rating: scale 0 to 100 (0 no effect, 100 complete control); for Plant response rating, Surinam Grass: scale 0 to 100, 0 no effect, 100 complete control
Outline: as §2

giant foxtail = assay: Test E preemergence; assay type: in vivo, Setaria faberii; conditions: for Foxtail, Giant plant response rating: scale 0 to 100 (0 no effect, 100 complete control); for Plant response rating, Foxtail, Giant: scale 0 to 100, 0 no effect, 100 complete control
Outline: as §2

green foxtail = assay: Test E preemergence; assay type: in vivo, Setaria viridis; conditions: for Foxtail, Green plant response rating: scale 0 to 100 (0 no effect, 100 complete control); for Plant response rating, Foxtail, Green: scale 0 to 100, 0 no effect, 100 complete control
Outline: as §2

goosegrass = assay: Test E preemergence; assay type: in vivo, Eleusine indica; conditions: for Goosegrass plant response rating: scale 0 to 100 (0 no effect, 100 complete control); for Plant response rating, Goosegrass: scale 0 to 100, 0 no effect, 100 complete control
Outline: as §2

arrowleaf sida = assay: Test E preemergence; assay type: in vivo, Sida rhombifolia; conditions: preemergence; for Arrowleaf Sida plant response rating: scale 0 to 100 (0 no effect, 100 complete control); for Plant response rating, Arrowleaf Sida: scale 0 to 100, 0 no effect, 100 complete control
Outline: as §2

field bindweed = assay: Test E preemergence; assay type: in vivo, Convolvulus arvensis; conditions: for Field Bindweed plant response rating: scale 0 to 100 (0 no effect, 100 complete control); for Plant response rating, Field Bindweed: scale 0 to 100, 0 no effect, 100 complete control
Outline: as §2

morningglory = assay: Test E preemergence; assay type: in vivo, Ipomoea coccinea; conditions: for Morningglory plant response rating: scale 0 to 100 (0 no effect, 100 complete control); for Plant response rating, Morningglory: scale 0 to 100, 0 no effect, 100 complete control
Outline: as §2

corn [3] = assay: Test E postemergence; assay type: in vivo, Zea mays
Outline: as §2

palmer pigweed [4] = assay: Test E postemergence; assay type: in vivo, Amaranthus palmeri
Outline: as §2

Brazilian crabgrass = assay: Test E postemergence; assay type: in vivo, Digitaria horizontalis
Outline: as §2

barnyardgrass = assay: Test E postemergence; assay type: in vivo, Echinochloa crus-galli
Outline: as §2

Italian ryegrass = assay: Test E postemergence; assay type: in vivo, Lolium multiflorum
Outline: as §2

[5] = Postemergence, 31 g ai/ha, scale 0 to 100
[6] = Postemergence, 62 g ai/ha, scale 0 to 100
[7] = Postemergence, 125 g ai/ha, scale 0 to 100
[8] = Postemergence, 250 g ai/ha, scale 0 to 100
[9] = postemergence, 16 g ai/ha, scale 0 to 100, 0 no effect, 100 complete control

## N#Cc1cnn(-c2c(C#N)cccc2Oc2ncc(Cl)cn2)c1 [Compound 200]
sedge, umbrella; 31 g ai/ha
  Plant response rating, Sedge, Umbrella: 0
sedge, umbrella; 62 g ai/ha
  Plant response rating, Sedge, Umbrella: 80
sedge, umbrella; 125 g ai/ha
  Plant response rating, Sedge, Umbrella: 90
sedge, umbrella; 250 g ai/ha
  Plant response rating, Sedge, Umbrella: 90
ducksalad; 31 g ai/ha
  Plant response rating, Ducksalad: 0
ducksalad; 62 g ai/ha
  Plant response rating, Ducksalad: 0
ducksalad; 125 g ai/ha
  Plant response rating, Ducksalad: 20
ducksalad; 250 g ai/ha
  Plant response rating, Ducksalad: 80
Corn [1]; 16 g ai/ha
  Corn plant response rating: 0
Corn [1]; 31 g ai/ha
  Corn plant response rating: 5
Corn [1]; 62 g ai/ha
  Corn plant response rating: 30
Corn [1]; 125 g ai/ha
  Plant response rating, Corn: 30
Corn [1]; 250 g ai/ha
  Plant response rating, Corn: 75
soybean; 31 g ai/ha
  Soybean plant response rating: 25
soybean; 62 g ai/ha
  Soybean plant response rating: 35
soybean; 125 g ai/ha
  Plant response rating, Soybean: 65
soybean; 250 g ai/ha
  Plant response rating, Soybean: 90
velvetleaf; 31 g ai/ha
  Velvetleaf plant response rating: 35
velvetleaf; 62 g ai/ha
  Velvetleaf plant response rating: 80
velvetleaf; 125 g ai/ha
  Plant response rating, Velvetleaf: 100
velvetleaf; 250 g ai/ha
  Plant response rating, Velvetleaf: 100
Palmer pigweed [2]; 31 g ai/ha
  Pigweed, Palmer plant response rating: 40
Palmer pigweed [2]; 62 g ai/ha
  Pigweed, Palmer plant response rating: 100
Palmer pigweed [2]; 125 g ai/ha
  Plant response rating, Pigweed, Palmer: 100
Palmer pigweed [2]; 250 g ai/ha
  Plant response rating, Pigweed, Palmer: 100
Surinam grass; 31 g ai/ha
  Surinam Grass plant response rating: 5
Surinam grass; 62 g ai/ha
  Surinam Grass plant response rating: 70
Surinam grass; 125 g ai/ha
  Plant response rating, Surinam Grass: 100
Surinam grass; 250 g ai/ha
  Plant response rating, Surinam Grass: 100
Giant foxtail; 16 g ai/ha
  Foxtail, Giant plant response rating: 0
Giant foxtail; 31 g ai/ha
  Foxtail, Giant plant response rating: 0
Giant foxtail; 62 g ai/ha
  Foxtail, Giant plant response rating: 0
Giant foxtail; 125 g ai/ha
  Plant response rating, Foxtail, Giant: 25
Giant foxtail; 250 g ai/ha
  Plant response rating, Foxtail, Giant: 70
Green foxtail; 16 g ai/ha
  Foxtail, Green plant response rating: 0
Green foxtail; 31 g ai/ha
  Foxtail, Green plant response rating: 5
Green foxtail; 62 g ai/ha
  Foxtail, Green plant response rating: 30
Green foxtail; 125 g ai/ha
  Plant response rating, Foxtail, Green: 75
Green foxtail; 250 g ai/ha
  Plant response rating, Foxtail, Green: 100
goosegrass; 31 g ai/ha
  Goosegrass plant response rating: 5
goosegrass; 62 g ai/ha
  Goosegrass plant response rating: 60
goosegrass; 125 g ai/ha
  Plant response rating, Goosegrass: 80
goosegrass; 250 g ai/ha
  Plant response rating, Goosegrass: 90
Arrowleaf sida; 16 g ai/ha
  Arrowleaf Sida plant response rating: 20
Arrowleaf sida; 31 g ai/ha
  Arrowleaf Sida plant response rating: 20
Arrowleaf sida; 62 g ai/ha
  Arrowleaf Sida plant response rating: 70
Arrowleaf sida; 125 g ai/ha
  Plant response rating, Arrowleaf Sida: 100
Arrowleaf sida; 250 g ai/ha
  Plant response rating, Arrowleaf Sida: 100
Field bindweed; 16 g ai/ha
  Field Bindweed plant response rating: 5
Field bindweed; 31 g ai/ha
  Field Bindweed plant response rating: 10
Field bindweed; 62 g ai/ha
  Field Bindweed plant response rating: 40
Field bindweed; 125 g ai/ha
  Plant response rating, Field Bindweed: 70
Field bindweed; 250 g ai/ha
  Plant response rating, Field Bindweed: 95
morningglory; 31 g ai/ha
  Morningglory plant response rating: 20
morningglory; 62 g ai/ha
  Morningglory plant response rating: 50
morningglory; 125 g ai/ha
  Plant response rating, Morningglory: 90
morningglory; 250 g ai/ha
  Plant response rating, Morningglory: 98
Corn [3]; [5]
  Plant response rating, Corn: 10
Corn [3]; [6]
  Plant response rating, Corn: 15
Corn [3]; [7]
  Plant response rating, Corn: 20
Corn [3]; [8]
  Plant response rating, Corn: 25
Corn [3]; [9]
  Plant response rating, Corn: 10
Palmer pigweed [4]; [5]
  Plant response rating, Pigweed, Palmer: 70
Palmer pigweed [4]; [6]
  Plant response rating, Pigweed, Palmer: 75
Palmer pigweed [4]; [7]
  Plant response rating, Pigweed, Palmer: 98
Palmer pigweed [4]; [8]
  Plant response rating, Pigweed, Palmer: 100
Palmer pigweed [4]; [9]
  Plant response rating, Pigweed, Palmer: 40
Brazilian crabgrass; [5]
  Plant response rating, Crabgrass, Brazil: 15
Brazilian crabgrass; [6]
  Plant response rating, Crabgrass, Brazil: 30
Brazilian crabgrass; [7]
  Plant response rating, Crabgrass, Brazil: 50
Brazilian crabgrass; [8]
  Plant response rating, Crabgrass, Brazil: 60
Brazilian crabgrass; [9]
  Plant response rating, Crabgrass, Brazil: 10
barnyardgrass; [5]
  Plant response rating, Barnyardgrass: 0
barnyardgrass; [6]
  Plant response rating, Barnyardgrass: 0
barnyardgrass; [7]
  Plant response rating, Barnyardgrass: 20
barnyardgrass; [8]
  Plant response rating, Barnyardgrass: 40
barnyardgrass; [9]
  Plant response rating, Barnyardgrass: 0
Italian ryegrass; [5]
  Plant response rating, Ryegrass, Italian: 0
Italian ryegrass; [6]
  Plant response rating, Ryegrass, Italian: 0
Italian ryegrass; [7]
  Plant response rating, Ryegrass, Italian: 0
Italian ryegrass; [8]
  Plant response rating, Ryegrass, Italian: 0
Italian ryegrass; [9]
  Plant response rating, Ryegrass, Italian: 0
